One experiment concerns MOLM-13 cells. Nature of the experiment: MOLM-13 Cellular Assay. The format is cell-based. Particulars: Homo sapiens, 72 hours exposure, cell viability by CellTiter-Glo. The method, then: The day prior to assay set-up, cells were pelleted, resuspended in fresh media, counted, and cells were plated at 0.4×10^6 cell/mL in a T150 flask. […] Cells were exposed to different concentrations of test compounds at 37° C., 5% CO2 for 72 hours immediately after seeding.

A further experiment addresses T1, human DHODH (Homo sapiens, UniProt Q02127).
T1 construct: purchased Proteros PR-0044
Nature of the experiment: DHODH Enzymatic Assay. The format is biochemical. As to conditions: purified human DHODH; DCIP absorbance, end-point mode. The method, then:
To detect DHODH enzyme activities, dichloroindophenol (DCIP) is added as the final electron acceptor in the assay. DCIP can accept electrons from the reduced coenzyme Q generated in the assay, or from dihydroorotate (DHO) via FMN by binding presumably to the ubiquinone pocket. […] The assay buffer contained […], pH 7.5, 150 mM NaCl, 0.5 mM EDTA, and 0.1% Triton X-100 in MilliQ water. Substrate consisting of 20 mM DHO, 5 mM CoQ6, and 1 mM DCIP in assay buffer, initiates the reaction. […] Absorbance measurements were obtained using the BMG Phera Star plate-reading spectrophotomer. Purified human DHODH was purchased from Proteros (cat. No. PR-0044). Chemicals were purchased from Sigma-Aldrich, Teknova, and Avanti Polar Lipids. Liquid handling was performed using Labcyte Echo and Formulatrix Tempest.

T1 sequence (Q02127 whole entry): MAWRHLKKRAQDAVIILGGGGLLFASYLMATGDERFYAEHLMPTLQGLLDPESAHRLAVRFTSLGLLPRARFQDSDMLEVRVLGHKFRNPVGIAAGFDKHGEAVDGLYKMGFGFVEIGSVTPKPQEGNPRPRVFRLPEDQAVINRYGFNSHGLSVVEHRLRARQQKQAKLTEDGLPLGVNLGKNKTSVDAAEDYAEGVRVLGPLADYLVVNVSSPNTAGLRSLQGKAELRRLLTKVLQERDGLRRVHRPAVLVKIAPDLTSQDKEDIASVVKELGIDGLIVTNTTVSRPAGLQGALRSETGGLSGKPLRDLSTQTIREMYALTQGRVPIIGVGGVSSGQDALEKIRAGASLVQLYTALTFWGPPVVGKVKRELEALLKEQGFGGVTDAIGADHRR

For the compound `CCn1c(CO)nn(-c2nc(O[C@@H](C)C(F)(F)F)c(C(=O)Nc3c(Cl)ccnc3Cl)cc2F)c1=O` [Example 69, (S)-N-(2,4-Dichloropyridin-3-yl)-6-(4-ethyl-3-(hydroxymethyl)-5-oxo-4,5-dihydro-1H-1,2,4-triazol-1-yl)-5-fluoro-2-((1,1,1-trifluoropropan-2-yl)oxy)nicotinamide], the results for the EC50 in the experiment with MOLM-13 cells and at human DHODH were 0.673 nM and 0.611 nM, respectively.

Turning to `CCn1c(CO)nn(-c2nc(O[C@@H](C)C(F)(F)F)c(C(=O)Nc3[nH]c(=O)ccc3Cl)cc2F)c1=O` [Example 23, (S)-N-(3-chloro-6-oxo-1,6-dihydropyridin-2-yl)-6-(4-ethyl-3-(hydroxymethyl)-5-oxo-4,5-dihydro-1H-1,2,4-triazol-1-yl)-5-fluoro-2-((1,1,1-trifluoropropan-2-yl)oxy)nicotinamide], the EC50 in the experiment on MOLM-13 cells is 90 nM; on human DHODH, 13.6 nM.

`CCn1c(CO)nn(-c2nc(O[C@@H](C)C(F)(F)F)c(C(=O)Nc3nc(C)ccc3F)cc2F)c1=O` [Example 39, (S)-6-(4-Ethyl-3-(hydroxymethyl)-5-oxo-4,5-dihydro-1H-1,2,4-triazol-1-yl)-5-fluoro-N-(3-fluoro-6-methylpyridin-2-yl)-2-((1,1,1-trifluoropropan-2-yl)oxy)nicotinamide]: the results for the EC50 in the experiment on MOLM-13 cells and at human DHODH were 16.5 nM and 14.1 nM, respectively.

Take `CCn1c(CO)nn(-c2nc(O[C@@H](C)C(F)(F)F)c(C(=O)Nc3cc(C#N)cnc3Cl)cc2F)c1=O` [Example 75, (S)-N-(2-Chloro-5-cyanopyridin-3-yl)-6-(4-ethyl-3-(hydroxymethyl)-5-oxo-4,5-dihydro-1H-1,2,4-triazol-1-yl)-5-fluoro-2-((1,1,1-trifluoropropan-2-yl)oxy)nicotinamide]: the figures for the EC50 with MOLM-13 cells and at human DHODH were more than 100 nM and 19.2 nM, respectively.

Consider `CCn1c(CO)nn(-c2nc(O[C@@H](C)C(F)(F)F)c(C(=O)Nc3c(OC)ccnc3Cl)cc2F)c1=O` [Example 44, (S)-N-(2-Chloro-4-methoxypyridin-3-yl)-6-(4-ethyl-3-(hydroxymethyl)-5-oxo-4,5-dihydro-1H-1,2,4-triazol-1-yl)-5-fluoro-2-((1,1,1-trifluoropropan-2-yl)oxy)nicotinamide], for which the EC50 in the experiment on MOLM-13 cells stood at 10.7 nM; at human DHODH, 3.9 nM.

For `CCn1c(CO)nn(-c2nc(O[C@@H](C)C(F)(F)F)c(C(=O)Nc3c(C)ccn(C)c3=O)cc2F)c1=O` [Example 53, N-(1,4-Dimethyl-2-oxo-2,3-dihydro-1l4-pyridin-3-yl)-6-(4-ethyl-3-(hydroxymethyl)-5-oxo-4,5-dihydro-1H-1,2,4-triazol-1-yl)-5-fluoro-2-(((S)-1,1,1-trifluoropropan-2-yl)oxy)nicotinamide], the EC50 is more than 100 nM in the experiment with MOLM-13 cells and 144 nM at human DHODH.

As to `CCn1c(CO)nn(-c2nc(O[C@@H](C)C(F)(F)F)c(C(=O)Nc3cc(Cl)cnc3OC)cc2F)c1=O` [Example 33, (S)-N-(5-Chloro-2-methoxypyridin-3-yl)-6-(4-ethyl-3-(hydroxymethyl)-5-oxo-4,5-dihydro-1H-1,2,4-triazol-1-yl)-5-fluoro-2-((1,1,1-trifluoropropan-2-yl)oxy)nicotinamide], the EC50 is more than 100 nM in the experiment with MOLM-13 cells and 52.5 nM on human DHODH.

Take `CCn1c(CO)nn(-c2nc(O[C@@H](C)C(F)(F)F)c(C(=O)Nc3cc(OC)ncc3C)cc2F)c1=O` [Example 66, (S)-6-(4-ethyl-3-(hydroxymethyl)-5-oxo-4,5-dihydro-1H-1,2,4-triazol-1-yl)-5-fluoro-N-(2-methoxy-5-methylpyridin-4-yl)-2-((1,1,1-trifluoropropan-2-yl)oxy)nicotinamide]: the EC50 in the experiment on MOLM-13 cells was determined as 19.9 nM; at human DHODH, 9.9 nM.

In the case of `CCn1c(CO)nn(-c2nc(O[C@@H](C)C(F)(F)F)c(C(=O)Nc3c(F)cnc(OC)c3C#N)cc2F)c1=O` [Example 117, N-(3-Cyano-5-fluoro-2-methoxy-4-pyridyl)-6-[4-ethyl-3-(hydroxymethyl)-5-oxo-1,2,4-triazol-1-yl]-5-fluoro-2-[(1S)-2,2,2-trifluoro-1-methyl-ethoxy]pyridine-3-carboxamide], the EC50 with MOLM-13 cells was 15.6 nM; on human DHODH, 1.03 nM.

Consider `CCn1c(CO)nn(-c2nc(O[C@@H](C)C(F)(F)F)c(C(=O)Nc3c(Cl)cnc(OC)c3C)cc2F)c1=O` [Example 110, N-(5-Chloro-2-methoxy-3-methyl-4-pyridyl)-6-[4-ethyl-3-(hydroxymethyl)-5-oxo-1,2,4-triazol-1-yl]-5-fluoro-2-[(1S)-2,2,2-trifluoro-1-methyl-ethoxy]pyridine-3-carboxamide], for which the EC50 in the experiment with MOLM-13 cells was found to be 0.282 nM; at human DHODH it was 0.367 nM.

With `CCn1c(CO)nn(-c2nc(O[C@@H](C)C(F)(F)F)c(C(=O)Nc3c(C)nn(C)c3C)cc2F)c1=O` [Example 55, (S)-6-(4-Ethyl-3-(hydroxymethyl)-5-oxo-4,5-dihydro-1H-1,2,4-triazol-1-yl)-5-fluoro-2-((1,1,1-trifluoropropan-2-yl)oxy)-N-(1,3,5-trimethyl-1H-pyrazol-4-yl)nicotinamide], the EC50 in the experiment with MOLM-13 cells is more than 100 nM; at human DHODH it was 17.3 nM.

On to `CCn1c(CO)nn(-c2nc(O[C@@H](C)C(F)(F)F)c(C(=O)Nc3c(C)ccnc3F)cc2F)c1=O` [Example 42, (S)-6-(4-Ethyl-3-(hydroxymethyl)-5-oxo-4,5-dihydro-1H-1,2,4-triazol-1-yl)-5-fluoro-N-(2-fluoro-4-methylpyridin-3-yl)-2-((1,1,1-trifluoropropan-2-yl)oxy)nicotinamide], for which the EC50 is 4.3 nM in the experiment on MOLM-13 cells and 2.4 nM at human DHODH.

Consider `CCn1c(CO)nn(-c2nc(O[C@@H](C)C(F)(F)F)c(C(=O)Nc3cc(C)ccc3F)cc2F)c1=O` [Example 11, (S)-6-(4-Ethyl-3-(hydroxymethyl)-5-oxo-4,5-dihydro-1H-1,2,4-triazol-1-yl)-5-fluoro-N-(2-fluoro-5-methylphenyl)-2-((1,1,1-trifluoropropan-2-yl)oxy)nicotinamide], for which the results for the EC50 in the experiment with MOLM-13 cells and on human DHODH were 0.5 nM and less than 1.69 nM, respectively.

As for `CCn1c(CO)nn(-c2nc(O[C@@H](C)C(F)(F)F)c(C(=O)Nc3c(F)cncc3Cl)cc2F)c1=O` [Example 28, (S)-N-(3-Chloro-5-fluoropyridin-4-yl)-6-(4-ethyl-3-(hydroxymethyl)-5-oxo-4,5-dihydro-1H-1,2,4-triazol-1-yl)-5-fluoro-2-((1,1,1-trifluoropropan-2-yl)oxy)nicotinamide], the EC50 with MOLM-13 cells is 4.7 nM; on human DHODH, 2.3 nM.

As for `CCCn1c(CO)nn(-c2nc(O[C@@H](C)C(F)(F)F)c(C(=O)Nc3c(C)n[nH]c3Cl)cc2F)c1=O` [Example 91, N-(5-Chloro-3-methyl-1H-pyrazol-4-yl)-5-fluoro-6-[3-(hydroxymethyl)-5-oxo-4-propyl-1,2,4-triazol-1-yl]-2-[(1S)-2,2,2-trifluoro-1-methyl-ethoxy]pyridine-3-carboxamide], the results for the EC50 in the experiment on MOLM-13 cells and at human DHODH were 2.04 nM and 3.86 nM, respectively.

In the case of `CCn1c(CO)nn(-c2nc(O[C@@H](C)C(F)(F)F)c(C(=O)Nc3c(C)cc(OC)nc3Cl)cc2F)c1=O` [Example 106, N-(2-Chloro-6-methoxy-4-methyl-3-pyridyl)-6-[4-ethyl-3-(hydroxymethyl)-5-oxo-1,2,4-triazol-1-yl]-5-fluoro-2-[(1S)-2,2,2-trifluoro-1-methyl-ethoxy]pyridine-3-carboxamide], the EC50 in the experiment with MOLM-13 cells was 0.792 nM; on human DHODH, 2.9 nM.
